The values below come from patent publication US8017612B2, “Piperazine compound and use thereof as a HCV polymerase inhibitor” (priority 2006, dated 2011).

For experiment [1], the target named is T1, HCV polymerase (NS5B) type 1b (Hepatitis C virus genotype 1b, UniProt P26663).
T1 construct: a region encoding NS5B (J Virol 1991 March, 65(3), 1105-13, 544 amino acids after deletion of 47 amino acids on the C-terminal); 6xHis (C); made in house; host or cells: Escherichia coli
The experiment can be described thus: Assay of enzyme (HCV polymerase) inhibitory activity, type 1b enzyme. In kind it is biochemical, HCV BK strain (type 1b). An outline of the steps:
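Rxn: NS5B 1b (BK, ΔC47, His6) 0.5 μg/ml; substrate RNA 5 μg/ml; ATP/GTP/CTP 50 μM, UTP 2 μM + [5,6-3H]UTP; 20 mM Tris pH 7.5, 5 mM MgCl2, 50 mM NaCl, 1 mM EDTA/DTT. 25 °C, 60 min. Stop with TCA/pyrophosphate, filter, scintillation count; IC50 vs. untreated.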

In experiment [2] the target is T2, HCV polymerase (NS5B) type 1a (Hepatitis C virus genotype 1a, UniProt P26664).
T2 construct: made in house; host or cells: Escherichia coli (by the 'similar method' of the 1b enzyme)
The experiment can be described thus: Assay of enzyme (HCV polymerase) inhibitory activity, type 1a enzyme. In kind it is biochemical, HCV type 1a (cloned from the blood of patients). An outline of the steps:
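NS5B Δ47 C-term His6 (type 1a, 1.5 μg/ml); substrate RNA 5 μg/ml; ATP/GTP/CTP 50 μM, UTP 2 μM + [5,6-3H]UTP; Tris pH 7.5, MgCl2 5 mM; 25° C, 60 min. TCA/pyrophosphate stop, GF/B filter, scintillation. IC50 vs no-compound control.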

The mark [3] stands for this setting: HCV polymerase inhibitory activity (IC50), 1b, type 1b enzyme 0.5 μg/ml, 25° C., 60 min.
Setting [4] is: HCV polymerase inhibitory activity (IC50), 1a, type 1a enzyme 1.5 μg/ml, 25° C., 60 min.
Setting [5] is: HCV polymerase inhibitory activity IC50, 1b, type 1b enzyme.
The mark [6] stands for this setting: HCV polymerase inhibitory activity IC50, 1a, type 1a enzyme.

Structures are written as SMILES.

Consider `CCOC(=O)c1csc(N2CCN(S(=O)(=O)c3ccc(C(C)C)cc3)C(C(=O)NCc3ccc(C(F)(F)F)cc3)C2)n1` (centres unmarked) [Example 170, 2-[4-(4-isopropyl-benzenesulfonyl)-3-(4-trifluoromethyl-benzylcarbamoyl)-piperazin-1-yl]-thiazole-4-carboxylic acid ethyl ester], for which the IC50 in experiment [1] (setting [3]) and in experiment [2] (setting [4]) was over 1 µM each time.
For `CC(=O)N1CCN(S(=O)(=O)c2ccc(C(C)C)cc2)[C@@H](C(=O)NCCN2CCCCC2)C1` [Example 402, (R)-4-acetyl-1-(4-isopropyl-benzenesulfonyl)-piperazine-2-carboxylic acid (2-piperidin-1-yl-ethyl)-amide], the IC50 in experiment [1] (setting [3]) and in experiment [2] (setting [4]) was over 1 µM in each case.
`O=C(NCc1ccc(OC(F)(F)F)c(F)c1)[C@H]1CN(c2nc3nc(C4CC4)ncc3s2)CCN1S(=O)(=O)c1ccc(C(F)(F)F)cc1` [Example 1101, (R)-4-(5-cyclopropyl-thiazolo[4,5-d]pyrimidin-2-yl)-1-(4-trifluoromethyl-benzenesulfonyl)-piperazine-2-carboxylic acid 3-fluoro-4-trifluoromethoxy-benzylamide]: the IC50 in experiment [1] (setting [5]) and in experiment [2] (setting [6]) was under 0.1 µM throughout.
On to `COc1ccc(CCNC(=O)[C@H]2CN(C(C)=O)CCN2S(=O)(=O)c2ccc(C(C)C)cc2)cc1` [Example 392, (R)-4-acetyl-1-(4-isopropyl-benzenesulfonyl)-piperazine-2-carboxylic acid [2-(4-methoxy-phenyl)-ethyl]-amide], for which the IC50 in experiment [1] (setting [3]) and in experiment [2] (setting [4]) was over 1 µM each time.
Take `CCCc1ccc(CNC(=O)[C@H]2CN(C(=O)Cn3nnnc3C)CCN2S(=O)(=O)c2ccc(OC(F)(F)F)cc2)cc1` [Example 456, (R)-4-[2-(5-methyl-tetrazol-1-yl)-acetyl]-1-(4-trifluoromethoxy-benzenesulfonyl)-piperazine-2-carboxylic acid 4-propyl-benzylamide]: the IC50 in experiment [1] (setting [3]) and in experiment [2] (setting [4]) was under 0.1 µM in each case.
As to `Cc1nc(N2CCN(S(=O)(=O)c3ccc(OC(F)(F)F)cc3)[C@@H](C(=O)NCc3ccc(N4CCCC4)nc3)C2)sc1C(=O)O` [Example 390, 4-methyl-2-[(R)-3-[(6-pyrrolidin-1-yl-pyridin-3-ylmethyl)-carbamoyl]-4-(4-trifluoromethoxy-benzenesulfonyl)-piperazin-1-yl]-thiazole-5-carboxylic acid], the 50% inhibitory concentration (IC50) is under 0.1 µM in experiment [1] (setting [3]) and 0.1 to 1 µM in experiment [2] (setting [4]).
Take `COc1nncc2sc(N3CCN(S(=O)(=O)c4ccc(OC(F)(F)F)cc4)[C@@H](C(=O)NCc4ccc(OC(F)(F)F)cc4)C3)nc12` [Example 1009, (R)-4-(4-methoxy-thiazolo[4,5-d]pyridazin-2-yl)-1-(4-trifluoromethoxy-benzenesulfonyl)-piperazine-2-carboxylic acid 4-trifluoromethoxy-benzylamide]: the IC50 in experiment [1] (setting [5]) and in experiment [2] (setting [6]) was under 0.1 µM in each case.
`CCC(F)(F)c1ccc(CNC(=O)[C@H]2CN(C(=O)Cc3cn(C)cn3)CCN2S(=O)(=O)c2ccc(OC(F)(F)F)cc2)cc1` [Example 498, (R)-4-[2-(1-methyl-1H-imidazol-4-yl)-acetyl]-1-(4-trifluoromethoxy-benzenesulfonyl)-piperazine-2-carboxylic acid 4-(1,1-difluoro-propyl)-benzylamide]: the IC50 in experiment [1] (setting [3]) and in experiment [2] (setting [4]) was 0.1 to 1 µM in each case.
Turning to `O=C(NCc1ccc(OC(F)F)cc1F)[C@H]1CN(c2nc3nc(C4CC4)ncc3s2)CCN1S(=O)(=O)c1ccc(OC(F)(F)F)cc1` [Example 1045, (R)-4-(5-cyclopropyl-thiazolo[4,5-d]pyrimidin-2-yl)-1-(4-trifluoromethoxy-benzenesulfonyl)-piperazine-2-carboxylic acid 4-difluoromethoxy-2-fluoro-benzylamide], the IC50 in experiment [1] (setting [5]) and in experiment [2] (setting [6]) was under 0.1 µM in each case.
In the case of `Cc1nc(N2CCN(S(=O)(=O)c3ccc(OC(F)(F)F)cc3)[C@@H](C(=O)NCCc3ccccc3)C2)sc1C(=O)O` [Example 418, 4-methyl-2-[(R)-3-phenethylcarbamoyl-4-(4-trifluoromethoxy-benzenesulfonyl)-piperazin-1-yl]-thiazole-5-carboxylic acid], the IC50 in experiment [1] (setting [3]) and in experiment [2] (setting [4]) was over 1 µM throughout.
As to `CC(C)(O)c1ncc2sc(N3CCN(S(=O)(=O)c4ccc(OC(F)(F)F)cc4)[C@@H](C(=O)NCc4ccc(OC(F)(F)F)cc4)C3)nc2n1` [Example 1047, (R)-4-[5-(1-hydroxy-1-methyl-ethyl)-thiazolo[4,5-d]pyrimidin-2-yl]-1-(4-trifluoromethoxy-benzenesulfonyl)-piperazine-2-carboxylic acid 4-trifluoromethoxy-benzylamide], the IC50 in experiment [1] (setting [5]) and in experiment [2] (setting [6]) was under 0.1 µM in each case.
For `CC(=O)N1CCN(S(=O)(=O)c2ccc(C(C)C)cc2)C(C(=O)NCc2ccc(Cl)cc2)C1` (centres unmarked) [Example 35, 4-acetyl-1-(4-isopropyl-benzenesulfonyl)-piperazine-2-carboxylic acid 4-chloro-benzylamide], the IC50 in experiment [1] (setting [3]) and in experiment [2] (setting [4]) was over 1 µM throughout.
`CN(C)c1ccc(CNC(=O)C2CN(CC(=O)O)CCN2S(=O)(=O)c2ccc(I)cc2)cc1` (centres unmarked) [Example 96, [3-(4-dimethylamino-benzylcarbamoyl)-4-(4-iodo-benzenesulfonyl)-piperazin-1-yl]-acetic acid]: the IC50 in experiment [1] (setting [3]) and in experiment [2] (setting [4]) was over 1 µM throughout.
Regarding `COC(=O)CCc1ccc(S(=O)(=O)N2CCN(C(C)=O)CC2C(=O)NCc2ccc(C(F)(F)F)cc2)cc1` (centres unmarked) [Example 166, 3-{4-[4-acetyl-2-(4-trifluoromethyl-benzylcarbamoyl)-piperazine-1-sulfonyl]-phenyl}-propionic acid methyl ester], the IC50 in experiment [1] (setting [3]) and in experiment [2] (setting [4]) was over 1 µM in each case.
As for `CCC(F)(F)c1ccc(CNC(=O)[C@H]2CN(c3cnc4c(n3)NC(=O)OC4)CCN2S(=O)(=O)c2ccc(OC(F)(F)F)cc2)cc1` [Example 616, (R)-4-(2-oxo-1,4-dihydro-2H-pyrazino[2,3-d][1,3]oxazin-7-yl)-1-(4-trifluoromethoxy-benzenesulfonyl)-piperazine-2-carboxylic acid 4-(1,1-difluoro-propyl)-benzylamide], the IC50 in experiment [1] (setting [3]) and in experiment [2] (setting [4]) was under 0.1 µM each time.
Turning to `CC(C)c1ccc(CNC(=O)[C@H]2CN(C(=O)Cn3cncn3)CCN2S(=O)(=O)c2ccc(C(F)(F)F)cc2)cc1` [Example 229, (R)-4-(2-[1,2,4]triazol-1-yl-acetyl)-1-(4-trifluoromethyl-benzenesulfonyl)-piperazine-2-carboxylic acid 4-isopropyl-benzylamide], the IC50 in experiment [1] (setting [3]) and in experiment [2] (setting [4]) was under 0.1 µM each time.
`CCCc1ccc(S(=O)(=O)N2CCN(C(C)=O)C[C@@H]2C(=O)NCc2ccc(C(C)C)cc2)s1` [Example 287, (R)-4-acetyl-1-(5-propyl-thiophene-2-sulfonyl)-piperazine-2-carboxylic acid 4-isopropyl-benzylamide]: the IC50 in experiment [1] (setting [3]) and in experiment [2] (setting [4]) was under 0.1 µM throughout.
In the case of `CCCc1ccc(CNC(=O)[C@H]2CN(c3ccncn3)CCN2S(=O)(=O)c2ccc(OC(F)(F)F)cc2)cc1` [Example 572, (R)-4-pyrimidin-4-yl-1-(4-trifluoromethoxy-benzenesulfonyl)-piperazine-2-carboxylic acid 4-propyl-benzylamide], the IC50 in experiment [1] (setting [3]) and in experiment [2] (setting [4]) was under 0.1 µM throughout.
With `CC(C)c1ccc(CNC(=O)[C@H]2CN(C(=O)Cn3nccn3)CCN2S(=O)(=O)c2ccc(C(F)(F)F)cc2)cc1` [Example 242, (R)-4-(2-[1,2,3]triazol-2-yl-acetyl)-1-(4-trifluoromethyl-benzenesulfonyl)-piperazine-2-carboxylic acid 4-isopropyl-benzylamide], the IC50 in experiment [1] (setting [3]) and in experiment [2] (setting [4]) was 0.1 to 1 µM throughout.
Consider `CCCc1ccc(CNC(=O)[C@H]2CN(c3cnc(CO)c(N)n3)CCN2S(=O)(=O)c2ccc(OC(F)(F)F)cc2)cc1` [Example 549, (R)-6′-amino-5′-hydroxymethyl-4-(4-trifluoromethoxy-benzenesulfonyl)-3,4,5,6-tetrahydro-2H-[1,2′]bipyrazinyl-3-carboxylic acid 4-propyl-benzylamide], for which the IC50 in experiment [1] (setting [3]) and in experiment [2] (setting [4]) was under 0.1 µM throughout.
Take `Cc1nc(N2CCN(S(=O)(=O)c3ccc(OC(F)(F)F)cc3)[C@@H](C(=O)NCc3ccc(C(C)C)cc3)C2)sc1C(=O)NCC(=O)OC(C)(C)C` [Example 358, ({2-[(R)-3-(4-isopropyl-benzylcarbamoyl)-4-(4-trifluoromethoxy-benzenesulfonyl)-piperazin-1-yl]-4-methyl-thiazole-5-carbonyl}-amino)-acetic acid tert-butyl ester]: the 50% inhibitory concentration (IC50) in experiment [1] (setting [3]) and in experiment [2] (setting [4]) was under 0.1 µM in each case.
For `CC(=O)N1CCN(S(=O)(=O)c2ccc(C(C)C)s2)C(C(=O)NCc2ccc(C(F)(F)F)cc2)C1` (centres unmarked) [Example 75, 4-acetyl-1-(5-isopropyl-thiophene-2-sulfonyl)-piperazine-2-carboxylic acid 4-trifluoromethyl-benzylamide], the IC50 in experiment [1] (setting [3]) and in experiment [2] (setting [4]) was over 1 µM each time.
